Assay results reported in patent US20250312462A1, “PAK1 DEGRADERS AND METHODS OF USE THEREOF” (INSTITUTE FOR CANCER RESEARCH D/B/A THE RESEARCH INSTITUTE …, priority 2022, published 2025).
pEC50, pIC50: −log10 of the molar value. Where two headings read alike, the source gives them in different places.

Columns and labels:
PAK4 = PAK4 (Homo sapiens, UniProt O96013); experiment: Z'-LYTE FRET kinase inhibition assay; type: biochemical; design: purchased Invitrogen
Source text: […]. […] […].

PAK2 [1] = target: T1, PAK2 (Homo sapiens, UniProt Q13177); experiment: Z'-LYTE FRET kinase inhibition assay; type: biochemical; design: PAK2 (full length); purchased Invitrogen PV4565
Procedure: The activity/inhibition of human recombinant PAK1 (kinase domain) or PAK2 (full length) was determined by measuring the phosphorylation of a FRET peptide substrate (Ser/Thr19) labeled with Coumarin and Fluorescein using Z′-LYTE™ assay (Invitrogen). The 10 μL assay mixtures contained 50 mM HEPES (pH 7.5), 0.01% Brij-35, 10 mM MgCl2, 1 mM EGTA, 2 μM FRET peptide substrate, and PAK enzyme (20 pM PAK1; 50 pM PAK2). Incubations were carried out at 22° C. in black polypropylene 384-well plates (Corning Costar). Prior to the assay, enzyme, FRET peptide substrate and serially diluted test compounds were preincubated together in assay buffer (7.5 μL) for 10 minutes, and the assay was initiated by the addition of 2.5 μL assay buffer containing 4×ATP (160 μM PAK1; 480 μM PAK2). Following the 60-minute incubation, the assay mixtures were quenched by the addition of 5 μL of Z′-LYTE™ development reagent, and 1 hour later the emissions of Coumarin (445 nm) and Fluorescein (520 nm) were determined after excitation at 400 nm using an Envision plate reader (Perkin Elmer). […].

PAK1 [2] = target: T2, PAK1 (Homo sapiens, UniProt Q13153); experiment: Z'-LYTE FRET kinase inhibition assay; type: biochemical; design: human recombinant PAK1 (kinase domain); purchased Invitrogen PV2830; details: for PAK1 inhibitory activity and selectivity of conjugate: vs PAK2 and PAK4
Procedure: The activity/inhibition of human recombinant PAK1 (kinase domain) or PAK2 (full length) was determined by measuring the phosphorylation of a FRET peptide substrate (Ser/Thr19) labeled with Coumarin and Fluorescein using Z′-LYTE™ assay (Invitrogen). The 10 μL assay mixtures contained 50 mM HEPES (pH 7.5), 0.01% Brij-35, 10 mM MgCl2, 1 mM EGTA, 2 μM FRET peptide substrate, and PAK enzyme (20 pM PAK1; 50 pM PAK2). Incubations were carried out at 22° C. in black polypropylene 384-well plates (Corning Costar). […] Following the 60-minute incubation, the assay mixtures were quenched by the addition of 5 μL of Z′-LYTE™ development reagent, and 1 hour later the emissions of Coumarin (445 nm) and Fluorescein (520 nm) were determined after excitation at 400 nm using an Envision plate reader (Perkin Elmer).
Target sequence in this assay (Q13153 270-521 limits assumed): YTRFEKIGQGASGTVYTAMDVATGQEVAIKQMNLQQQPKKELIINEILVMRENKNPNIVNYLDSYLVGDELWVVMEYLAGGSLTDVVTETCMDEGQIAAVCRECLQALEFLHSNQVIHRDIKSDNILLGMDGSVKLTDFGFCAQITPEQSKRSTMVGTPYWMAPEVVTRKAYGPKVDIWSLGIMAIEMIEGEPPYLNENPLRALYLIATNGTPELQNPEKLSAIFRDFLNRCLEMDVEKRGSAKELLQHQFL

MCF7 cells = experiment: Cell proliferation, MTT assay; type: cell-based; details: for Effect on cell proliferation: MCF7 cells; for pEC50: Homo sapiens, MCF7, read-out: EC50, anti-proliferative, MCF7 cells
Procedure: (§1) Cell proliferation was assessed by MTT assay.
(§2) Cell viability was measured by MTT assay and the half maximal inhibitory concentration (IC50) was calculated using GraphPad Prism. Triplicates were performed for each sample and medium alone was used as a blank.
(§3) The anti-proliferative effects of PAK1 degradation and inhibition were evaluated.

OVCAR3 cells = experiment: Cell proliferation, MTT assay; type: cell-based; details: for Effect on cell proliferation: OVCAR3 cells; for pEC50: Homo sapiens, OVCAR-3, read-out: EC50, anti-proliferative, OVCAR3 cells
Procedure: […]. Cell proliferation was assessed by MTT assay. […].
Cells were plated at 2×10^3 cells per well in 96-well plates overnight and treated with various concentrations of Pak degraders for 72 hours. Cell viability was measured by MTT assay and the half maximal inhibitory concentration (IC50) was calculated using GraphPad Prism. Triplicates were performed for each sample and medium alone was used as a blank.
The anti-proliferative effects of PAK1 degradation and inhibition were evaluated. […]. […] […]. […] […].

PAK1 [3] = target: T2, PAK1; experiment: PAK1 degradation in MCF7 and OVCAR3 cells, immunoblot; type: cell-based; design: endogenous in cells; host or cells: MCF7, OVCAR3; details: MCF7 and OVCAR3 cells
Procedure: Protein lysates were harvested at the times specified.
Cell lysates were obtained by centrifugation at 13,500 rpm for 15 minutes at 4° C. BCA protein assay (Thermo Scientific) was used to determine protein concentration then equal amounts of total proteins were separated by SDS-PAGE (Bio-Rad) and transferred to PVDF membrane (Thermo Scientific) at 100V for 2 hours. Membranes were blocked in 5% (w/v) non-fat dry milk in tris-buffered saline with 0.1% Tween-20 (TBS-T) for 1 hour and incubated with primary antibody at 4° C. for overnight. Membranes were washed with TBS-T on the next day and incubated with HRP-conjugated secondary antibodies (Millipore) at room temperature for 1 hour and exposed to films after washing.
Target sequence in this assay (Q13153 whole entry, the tested form may be a part): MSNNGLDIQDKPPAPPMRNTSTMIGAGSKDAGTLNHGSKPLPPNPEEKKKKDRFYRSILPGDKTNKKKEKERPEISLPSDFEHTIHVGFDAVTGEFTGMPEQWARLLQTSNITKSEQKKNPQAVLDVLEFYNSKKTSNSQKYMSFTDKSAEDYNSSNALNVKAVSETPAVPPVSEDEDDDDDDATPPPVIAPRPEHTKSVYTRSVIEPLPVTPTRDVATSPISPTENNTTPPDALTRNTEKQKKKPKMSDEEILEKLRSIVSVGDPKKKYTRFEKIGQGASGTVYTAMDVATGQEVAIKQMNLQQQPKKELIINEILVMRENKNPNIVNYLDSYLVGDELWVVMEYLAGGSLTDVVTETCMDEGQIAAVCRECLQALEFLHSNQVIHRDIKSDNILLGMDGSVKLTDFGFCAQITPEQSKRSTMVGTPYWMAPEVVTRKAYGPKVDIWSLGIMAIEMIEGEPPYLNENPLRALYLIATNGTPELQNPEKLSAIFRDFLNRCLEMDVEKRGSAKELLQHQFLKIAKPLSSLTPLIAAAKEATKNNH

PAK2 [4] = target: T1, PAK2; experiment: PAK2 degradation in MCF7 and OVCAR3 cells, immunoblot; type: cell-based; design: due to their high expression of both PAK1 and PAK2; endogenous in cells; host or cells: MCF7, OVCAR3
Procedure: […]. Cells were incubated overnight then treated with various concentrations of Pak degraders alone or together with bortezomib or lenalidomide for 24 hours. Protein lysates were harvested at the times specified.
Cells were washed once in PBS and lysed in RIPA buffer (50 mM Tris-HCl, 150 mM NaCl, 0.25% (w/v) sodium deoxycholate, 1% (w/v) NP-40, pH 7.5) containing protease inhibitor cocktail (Roche) and phosphatase inhibitor cocktail (Roche) for 30 minutes on ice. Cell lysates were obtained by centrifugation at 13,500 rpm for 15 minutes at 4° C. BCA protein assay (Thermo Scientific) was used to determine protein concentration then equal amounts of total proteins were separated by SDS-PAGE (Bio-Rad) and transferred to PVDF membrane (Thermo Scientific) at 100V for 2 hours. Membranes were blocked in 5% (w/v) non-fat dry milk in tris-buffered saline with 0.1% Tween-20 (TBS-T) for 1 hour and incubated with primary antibody at 4° C. for overnight. […]
After verifying that BJG-05-039 retained specificity for PAK1, its degradation activity in cells was characterized. First, the PAK1 degrader was evaluated in the breast cancer cell line MCF7 and the ovarian cancer cell line OVCAR3 due to their high expression of both PAK1 and PAK2 and their known dependence on PAK1 (Prudnikova, et al. (2016) Oncogene 35:2178-2185; Shrestha, et al. (2012) Oncogene 31:3397-3408). […]

Hey A8 cells = experiment: Cell proliferation, MTT assay; type: cell-based; details: HEY A8, read-out: EC50, anti-proliferative
Procedure: as §1, §2, §3

OMM1 cells = experiment: Cell proliferation, MTT assay; type: cell-based; details: OMM-1, read-out: EC50, anti-proliferative
Procedure: as §1, §2, §3

[5] = cited from earlier work
[6] = cited from earlier work; remark: listed apart in the source

T1 sequence (Q13177 whole entry, the tested form may be a part): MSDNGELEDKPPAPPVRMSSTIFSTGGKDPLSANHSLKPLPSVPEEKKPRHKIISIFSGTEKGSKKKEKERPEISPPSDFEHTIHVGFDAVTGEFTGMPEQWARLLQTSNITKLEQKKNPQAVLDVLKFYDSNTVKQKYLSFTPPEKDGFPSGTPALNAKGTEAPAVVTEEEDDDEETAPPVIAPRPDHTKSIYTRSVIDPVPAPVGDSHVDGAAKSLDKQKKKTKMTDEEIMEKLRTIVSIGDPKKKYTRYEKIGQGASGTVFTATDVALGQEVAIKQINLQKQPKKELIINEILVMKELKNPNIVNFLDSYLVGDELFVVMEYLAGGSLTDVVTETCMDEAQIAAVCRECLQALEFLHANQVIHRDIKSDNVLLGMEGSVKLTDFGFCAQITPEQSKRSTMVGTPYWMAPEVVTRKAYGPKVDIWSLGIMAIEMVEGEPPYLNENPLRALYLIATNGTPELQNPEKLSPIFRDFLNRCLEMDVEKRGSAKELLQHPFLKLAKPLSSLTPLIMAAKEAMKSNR
Chain of PAK4 (O96013 whole entry): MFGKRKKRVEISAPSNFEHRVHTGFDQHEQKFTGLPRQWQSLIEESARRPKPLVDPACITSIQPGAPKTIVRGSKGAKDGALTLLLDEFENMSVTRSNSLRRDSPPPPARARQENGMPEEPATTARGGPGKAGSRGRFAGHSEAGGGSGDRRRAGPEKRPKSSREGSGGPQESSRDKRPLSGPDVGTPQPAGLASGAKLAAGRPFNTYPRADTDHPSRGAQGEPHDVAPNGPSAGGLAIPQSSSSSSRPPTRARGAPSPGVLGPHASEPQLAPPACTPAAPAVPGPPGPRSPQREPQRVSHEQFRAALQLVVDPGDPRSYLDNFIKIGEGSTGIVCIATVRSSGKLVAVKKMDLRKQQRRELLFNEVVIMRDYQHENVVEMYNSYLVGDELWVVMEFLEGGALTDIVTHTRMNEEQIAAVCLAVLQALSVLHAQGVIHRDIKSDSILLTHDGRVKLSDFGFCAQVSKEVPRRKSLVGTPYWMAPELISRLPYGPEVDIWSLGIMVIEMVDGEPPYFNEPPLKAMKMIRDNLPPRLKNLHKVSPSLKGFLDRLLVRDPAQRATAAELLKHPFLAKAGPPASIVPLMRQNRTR

Row | Compound | pIC50 (PAK4) | pIC50 (PAK2 [1]) | pIC50 (PAK1 [2]) | also measured
1 | O=C1CCC(N2C(=O)c3cccc(NCCOCCOCCC(=O)N4CC[C@H](NC5=Nc6cc(F)ccc6N(CC(F)F)c6ccc(Cl)cc65)C4)c3C2=O)C(=O)N1 (some centres unmarked) [BJG-05-014] | 6.82 | 6.14 | 6.36 | PAK1 inhibitory activity and selectivity of conjugate (PAK1 [2]): retained PAK1 inhibitory activity and selectivity
2 | O=C1CCC(N2C(=O)c3cccc(NCCCCCCC(=O)N4CC[C@H](NC5=Nc6cc(F)ccc6N(CC(F)F)c6ccc(Cl)cc65)C4)c3C2=O)C(=O)N1 (some centres unmarked) [BJG-05-017] | < 6.00 | < 5.48 | < 5.95 | 
3 | O=C(COc1cccc2c1C(=O)N(C1CCC(=O)NC1=O)C2=O)NCCCCCCC(=O)N1CC[C@H](NC2=Nc3cc(F)ccc3N(CC(F)F)c3ccc(Cl)cc32)C1 (some centres unmarked) [BJG-05-018] | < 5.00 | < 5.00 | < 5.48 | 
4 | O=C1CCC(N2C(=O)c3cccc(NCCCC(=O)N4CC[C@H](NC5=Nc6cc(F)ccc6N(CC(F)F)c6ccc(Cl)cc65)C4)c3C2=O)C(=O)N1 (some centres unmarked) [BJG-05-019] | < 5.00 | < 5.00 | 5.20 | 
5 | Cc1ncsc1-c1ccc([C@H](C)NC(=O)C2C[C@@H](O)CN2C(=O)[C@@H](NC(=O)CCCCCCCC(=O)N2CC[C@H](NC3=Nc4cc(F)ccc4N(CC(F)F)c4ccc(Cl)cc43)C2)C(C)(C)C)cc1 (some centres unmarked) [BJG-05-020] | < 5.00 | < 5.00 | < 5.00 | 
6 | O=C1CCC(N2C(=O)c3cccc(NCCOCCOCCNC(=O)N4CC[C@H](NC5=Nc6cc(F)ccc6N(CC(F)F)c6ccc(Cl)cc65)C4)c3C2=O)C(=O)N1 (some centres unmarked) [BJG-05-022] | 5.41 | 5.17 | 5.83 | 
7 | O=C1CCC(N2C(=O)c3cccc(NCCCCCNC(=O)N4CC[C@H](NC5=Nc6cc(F)ccc6N(CC(F)F)c6ccc(Cl)cc65)C4)c3C2=O)C(=O)N1 (some centres unmarked) [BJG-05-027] | < 5.00 | < 5.00 | 6.23 | PAK1 inhibitory activity and selectivity of conjugate (PAK1 [2]): retained PAK1 inhibitory activity and selectivity
8 | Cc1ccc(CO)cc1N(Cc1ccccc1C#N)c1nc(Nc2ccc(N3CCN(CCOCCOCCNc4cccc5c4C(=O)N(C4CCC(=O)NC4=O)C5=O)CC3)c(S(C)(=O)=O)c2)ncc1F (centres unmarked) [BJG-05-093, 2-(((2-((4-(4-(2-(2-(2-((2-(2,6-Dioxopiperidin-3-yl)-1,3-dioxoisoindolin-4-yl)amino)ethoxy)ethoxy)ethyl)piperazin-1-yl)-3-(methylsulfonyl)phenyl)amino)-5-fluoropyrimidin-4-yl)(5-(hydroxymethyl)-2-methylphenyl)amino)methyl)benzonitrile] |  |  | 7.49 | 
9 | Cc1ccc(CO)cc1N(Cc1ccccc1C#N)c1nc(Nc2ccc(N3CCN(C(=O)CCOCCOCCNc4cccc5c4C(=O)N(C4CCC(=O)NC4=O)C5=O)CC3)c(S(C)(=O)=O)c2)ncc1F (centres unmarked) [BJG-05-094, 2-(((2-((4-(4-(3-(2-(2-((2-(2,6-Dioxopiperidin-3-yl)-1,3-dioxoisoindolin-4-yl)amino)ethoxy)ethoxy)propanoyl)piperazin-1-yl)-3-(methylsulfonyl)phenyl)amino)-5-fluoropyrimidin-4-yl)(5-(hydroxymethyl)-2-methylphenyl)amino)methyl)benzonitrile] |  |  | 6.99 | 
10 | Cc1ccc(CO)cc1N(Cc1ccccc1C#N)c1nc(Nc2ccc(N3CCN(CCOCCOCCOCCOCCNc4cccc5c4C(=O)N(C4CCC(=O)NC4=O)C5=O)CC3)c(S(C)(=O)=O)c2)ncc1F (centres unmarked) [BJG-05-095, 2-(((2-((4-(4-(14-((2-(2,6-Dioxopiperidin-3-yl)-1,3-dioxoisoindolin-4-yl)amino)-3,6,9,12-tetraoxatetradecyl)piperazin-1-yl)-3-(methylsulfonyl)phenyl)amino)-5-fluoropyrimidin-4-yl)(5-(hydroxymethyl)-2-methylphenyl)amino)methyl)benzonitrile] |  |  | 7.44 | 
11 | CN1C(=O)CCC(N2C(=O)c3cccc(NCCCCCCCCNC(=O)N4CC[C@H](NC5=Nc6cc(F)ccc6N(CC(F)F)c6ccc(Cl)cc65)C4)c3C2=O)C1=O (stereo partly drawn) [BJG-05-098, (3S)-3-((2-Chloro-5-(2,2-difluoroethyl)-8-fluoro-5H-dibenzo[b,e][1,4]diazepin-11-yl)amino)-N-(8-((2-(J-methyl-2,6-dioxopiperidin-3-yl)-1,3-dioxoisoindolin-4-yl)amino)octyl)pyrrolidine-1-carboxamide] |  |  |  | Effect on cell proliferation (MCF7 cells): did not affect cell proliferation; Effect on cell proliferation (OVCAR3 cells): did not affect cell proliferation; PAK1 degradation (PAK1 [3]): PAK1 degradation was not observed; PAK2 degradation (PAK2 [4]): did not induce degradation of PAK1 or PAK2
12 | CC(C)NC(=O)N1CC[C@H](NC2=Nc3cc(F)ccc3N(CC(F)F)c3ccc(Cl)cc32)C1 [NVS-PAK1-1, reference compound] | < 5.00 |  |  | pEC50 (Hey A8 cells): 4.47; pEC50 (MCF7 cells; first statement of b311): 4.92; pEC50 (MCF7 cells; second listing of b311): 4.93; pEC50 (OMM1 cells): 4.92; pEC50 (OVCAR3 cells; first statement of b311): 5.43; pEC50 (OVCAR3 cells; second listing of b311): 5.05; Half-life in rat liver microsomes [5]: short half-life; In vivo half-life [6]: short in vivo half-life
13 | Nc1cccc2c1CN(C1CCC(=O)NC1=O)C2=O (centres unmarked) [lenalidomide, reference compound] |  |  |  | Effect on cell proliferation (MCF7 cells): lacked significant antiproliferative effects; Effect on cell proliferation (OVCAR3 cells): lacked significant antiproliferative effects
